# Several values for one entry are separate records, joined by “and”; a condition that tells them apart may be missing. Equal entries are not always repeated. Structures can show the parent of a compound that is named as a salt.
# What was measured:
# MCF7 [1] = experiment: Anticancer activity against human MCF7 cells assessed as cell growth inhibition incubated for 48 hrs by MTS assay; assay type: functional, cell-based; details: MCF7, 48 h
# in vitro = details: human, CCD-1059Sk cells and MCF7 cells
# Description: Selectivity index, ratio of IC50 for cytotoxicity against CCD-1059Sk cells to IC50 for antiproliferative activity against MCF7 cells
# [2] = Cytotoxicity activity against human CCD-1059Sk cells assessed as cell growth inhibition incubated for 48 hrs by MTS assay; assay type: toxicity, cell-based
# PANC-1 = experiment: Anticancer activity against human PANC-1 cells assessed as cell growth inhibition incubated for 48 hrs by SRB assay; assay type: functional; details: Homo sapiens, PANC-1, 48 h
# HEK293 = experiment: Anticancer activity against human HEK293 cells assessed as cell growth inhibition incubated for 3 days by MTT assay; assay type: functional, cell-based; details: HEK293, 72 h
# HT-29 [3] = experiment: Anticancer activity against human HT-29 cells assessed as cell growth inhibition incubated for 3 days by MTT assay; assay type: functional, cell-based; details: HT-29, 72 h
# MCF7 [4] = experiment: Anticancer activity against human MCF7 cells assessed as cell growth inhibition incubated for 3 days by MTT assay; assay type: functional, cell-based; details: MCF7, 72 h
# MDA-MB-231 = experiment: Anticancer activity against human MDA-MB-231 cells assessed as reduction in cell viability measured after 48 hrs at 150 uM by MTT assay relative to control; assay type: functional
# B16-F10 [5] = experiment: Anti cancer activity against mouse B16-F10 cells assessed as cell growth inhibition incubated for 40 hrs by Almar Blue stained fluorescence-based assay; assay type: functional; details: B16-F10, 40 h
# [6] = Anticancer activity against human AZ-AHR cells assessed as cell growth inhibition incubate for 24 hrs by MTT assay; assay type: functional, cell-based
# [7] = Anticancer activity against Lung adenocarcinoma cell line assessed as cell growth inhibition measured after 72 hrs by MTT assay; assay type: functional, cell-based; details: Lung adenocarcinoma cell line, 72 h
# A549 = experiment: Anticancer activity against human A549 cells assessed as cell growth inhibition measured after 72 hrs by MTT assay; assay type: functional, cell-based
# HeLa = experiment: Anticancer activity against human HeLa cells assessed as cell growth inhibition measured after 72 hrs by MTT assay; assay type: functional, cell-based
# Ishikawa = experiment: cells; details: Homo sapiens
# Description: Anti-tumor activity against human ishikawa cells assessed as anti-estrogenic potential
# Aromatase = molecular target: T1, Aromatase (Homo sapiens, UniProt P11511)
# T1 sequence (P11511 whole entry): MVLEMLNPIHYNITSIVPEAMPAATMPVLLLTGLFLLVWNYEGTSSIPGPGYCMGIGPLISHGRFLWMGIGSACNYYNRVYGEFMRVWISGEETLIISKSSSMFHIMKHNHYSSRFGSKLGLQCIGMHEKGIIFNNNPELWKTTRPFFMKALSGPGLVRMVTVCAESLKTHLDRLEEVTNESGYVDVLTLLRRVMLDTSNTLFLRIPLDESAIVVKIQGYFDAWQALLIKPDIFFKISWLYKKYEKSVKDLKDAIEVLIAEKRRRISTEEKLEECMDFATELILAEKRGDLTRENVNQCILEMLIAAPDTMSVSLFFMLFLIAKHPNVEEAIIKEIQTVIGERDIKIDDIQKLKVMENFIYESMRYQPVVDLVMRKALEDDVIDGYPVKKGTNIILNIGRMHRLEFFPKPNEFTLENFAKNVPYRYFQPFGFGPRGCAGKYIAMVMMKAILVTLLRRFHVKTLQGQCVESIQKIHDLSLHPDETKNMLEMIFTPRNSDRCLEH
# Description: Inhibition of human Aromatase
# CYP1A = CYP1A (Homo sapiens, UniProt P04798+P05177); experiment: Inhibtion of CYP1A (unknown origin); assay type: ADME, protein assay
# SK-BR-3 = experiment: Anticancer activity against human SK-BR-3 cells assessed as cell growth inhibition incubated for 24 hrs by MTT assay; assay type: functional, cell-based; details: SK-BR-3, 24 h
# HCT-116 [8] = experiment: Anticancer activity against human HCT-116 cells assessed as cell growth inhibition; assay type: functional, cell-based
# HepG2 = experiment: Anticancer activity against human HepG2 cells assessed as cell growth inhibition incubated for 24 hrs by MTT assay; assay type: functional, cell-based; details: HepG2, 24 h
# HT-29 [9] = experiment: Anticancer activity against human HT-29 cells assessed as cell growth inhibition incubated for 24 hrs by MTT assay; assay type: functional, cell-based
# HCT-116 [10] = experiment: Anticancer activity against human HCT-116 cells assessed as cell growth inhibition incubated for 5 days by SRB assay; assay type: functional, cell-based; details: HCT-116, 120 h
# B16-F10 [11] = experiment: Anti cancer activity against mouse B16-F10 cells assessed as cell growth inhibition incubated for 40 hrs by Almar Blue stained fluorescence-based assay relative to control; assay type: functional
# [12] = Homo sapiens, HeLa, 72 h, read-out: IC50
compound,measurement,setting,value
COc1cc(/C=N/NC(=O)/C=C/c2ccc(O)c(OC)c2)cc(OC)c1,IC50,MCF7 [1],43 µM
same,selectivity ratio,in vitro,6.81
same,IC50 at 48 h,[2],130 µM
COc1cc(/C=C/c2ccc(NC(=O)CSc3nnc(-c4ccccc4F)o3)cc2)cc(OC)c1,GI50,PANC-1,0.064 µM
O=S(=O)(O)Oc1ccc(/C=C/c2cc(O)cc(OS(=O)(=O)O)c2)cc1,IC50,HEK293,> 100 µM
same,IC50,HT-29 [3],56 µM
same,IC50,MCF7 [4],26 µM
CC(C)(C)C(=O)Oc1ccc(/C=C/c2cc(O)cc(O)c2)cc1,Activity,MDA-MB-231,7.7%
COc1cc(/C=C/c2ccc(NC(=O)CSc3nnc(-c4cccc(C(F)(F)F)c4)o3)cc2)cc(OC)c1,GI50,PANC-1,0.064 µM
COc1cc(/C=C/c2ccc(NC(=O)CSc3nnc(-c4cnccn4)o3)cc2)cc(OC)c1,GI50,PANC-1,0.064 µM
COc1cc(/C=C/c2ccc(OC(=O)CSc3nnc(-c4ccncc4)o3)cc2)cc(OC)c1,GI50,PANC-1,0.064 µM
CCCC(=O)Oc1ccc(/C=C/c2cc(O)cc(O)c2)cc1,Activity,MDA-MB-231,14.14%
COc1ccc(/C=C\c2cc(OC)c(OC)c(OC)c2)c(OC)c1,IC50,B16-F10 [5],1 µM
COc1cc(/C=C/C(=O)N/N=C/c2ccc(O)c(OC)c2)ccc1O,IC50,MCF7 [1],129 µM
same,selectivity ratio,in vitro,1.73
same,IC50 at 48 h,[2],74.6 µM
CCCCCCCC(=O)OC[C@H]1O[C@@H](Oc2cc(O)cc(/C=C/c3ccc(O)cc3)c2)[C@H](O)[C@@H](O)[C@@H]1O,IC50,HEK293,> 100 µM
same,IC50,HT-29 [3],39 µM
same,IC50,MCF7 [4],52 µM
COc1cc(/C=C/c2ccc(OC(=O)CSc3nnc(-c4ccc(C(F)(F)F)cc4)o3)cc2)cc(OC)c1,GI50,PANC-1,0.064 µM
COc1ccc(-c2nnc(SCC(=O)Oc3ccc(/C=C/c4cc(OC)cc(OC)c4)cc3)o2)cc1,GI50,PANC-1,0.064 µM
Oc1cc(O)cc(/C=C\c2ccc(O)c(O)c2)c1,IC50,[6],7.8 µM
COc1cc(/C=C/c2ccc(NC(=O)CSc3nnc(-c4ccc(C(F)(F)F)cc4)o3)cc2)cc(OC)c1,GI50,PANC-1,0.064 µM
COc1cccc2c1C(=O)c1c(O)c3c(c(O)c1C2=O)C[C@@](O)(C(=O)CO)C[C@@H]3O[C@H]1C[C@H](N)[C@H](O)[C@H](C)O1 [DOXORUBICIN HYDROCHLORIDE],IC50,[7],1.18 µM
same,IC50,"A549; Homo sapiens, A549, 72 h",2.36 µM
same,IC50,HeLa; [12],0.48 µM
O=S(=O)(Oc1ccc(/C=C/c2cc(O)cc(OS(=O)(=O)c3ccccc3)c2)cc1)c1ccccc1,IC50,[7],5.55 µM
same,IC50,"A549; Homo sapiens, A549, 72 h",4.9 µM
same,IC50,HeLa; [12],6.48 µM
COc1ccc(/C=C/c2cc(OC)cc(OC)c2)cc1 [TRISMETHOXYRESVERATROL],IC50,Ishikawa,12.6 µM
same,IC50,Aromatase,13.6 µM
same,IC50,CYP1A,0.003 µM
same,IC50,SK-BR-3,112 µM
same,IC50,HCT-116 [8],1.1 µM
same,IC50,HepG2,> 100 µM
same,IC50,"HT-29 [9]; Homo sapiens, HT-29, 24 h",14 µM
Oc1cc(O)cc(/C=C/c2ccc(OCc3ccccc3)cc2)c1,IC50,[7],9.43 µM
same,IC50,"A549; Homo sapiens, A549, 72 h",26.3 µM
same,IC50,HeLa; [12],8.25 µM
COc1cc(/C=C/c2ccc(NC(=O)CSc3nnc(-c4ccc(C)cc4)o3)cc2)cc(OC)c1,GI50,PANC-1,0.064 µM
COc1cc(/C=C/c2ccc(O[C@@H]3O[C@H](CO)[C@@H](O)[C@H](O)[C@H]3O)cc2)cc(O[C@@H]2O[C@H](CO)[C@@H](O)[C@H](O)[C@H]2O)c1,IC50,HEK293,> 100 µM
same,IC50,HT-29 [3],45 µM
same,IC50,MCF7 [4],78 µM
COc1cc(/C=C/c2ccc(OC(=O)CSc3nnc(-c4cc(OC)c(OC)c(OC)c4)o3)cc2)cc(OC)c1,GI50,PANC-1,0.064 µM
Oc1ccccc1/C=N/c1ccccc1O,IC50,HCT-116 [10],0.6 µM
OC[C@H]1O[C@@H](Oc2cc(/C=C/c3ccc(O)cc3)cc(O[C@@H]3O[C@H](CO)[C@@H](O)[C@H](O)[C@H]3O)c2)[C@H](O)[C@@H](O)[C@@H]1O,IC50,HEK293,> 100 µM
same,IC50,HT-29 [3],24 µM
same,IC50,MCF7 [4],72 µM
COc1cc(/C=C/c2ccc(OC(=O)CSc3nnc(-c4cnccn4)o3)cc2)cc(OC)c1,GI50,PANC-1,0.064 µM
COC(=O)c1cc(/C=C/c2cc(O)cc(O)c2)ccc1O,IC50,SK-BR-3,11.3 µM
same,IC50,HepG2,18.9 µM
same,IC50,HT-29 [9]; ht-29,44.3 µM and 18.9 µM
Oc1cc(O)cc(/C=C/c2ccc(O)c(O)c2)c1 [PICEATANNOL],IC50,[6],4.5 µM
same,IC50,HCT-116 [8],5 µM
OC[C@H]1O[C@@H](Oc2cc(O)cc(/C=C/c3ccc(O)cc3)c2)[C@H](O)[C@@H](O)[C@@H]1O [PICEID],IC50,HEK293,> 100 µM
same,IC50,HT-29 [3],18 µM
same,IC50,MCF7 [4],38 µM
Oc1ccc(/C=C/c2cc(O)cc(OCc3ccccc3)c2)cc1,IC50,Aromatase,2.7 µM
same,IC50,[7],7.96 µM
same,IC50,CYP1A,0.14 µM
same,IC50,"A549; Homo sapiens, A549, 72 h",11.8 µM
same,IC50,HeLa; [12],1.41 µM
COc1cc(/C=C/c2ccc(OC(=O)CSc3nnc(-c4ccccc4F)o3)cc2)cc(OC)c1,GI50,PANC-1,0.064 µM
COc1ccc(/C=C/c2ccc(OC)c(OC)c2)cc1,IC50,B16-F10 [5],1 µM
COc1ccc(-c2nnc(SCC(=O)Nc3ccc(/C=C/c4cc(OC)cc(OC)c4)cc3)o2)cc1,GI50,PANC-1,0.064 µM
COc1ccc(/C=C/c2cc(OC)c(OC)c(OC)c2)cc1,IC50,HCT-116 [8],1.1 µM
"COc1ccc(/C=C\c2ccc(OC)c(OC)c2)cc1 [7Z-3,4,4'-TRIMETHOXYSTILBENE]",IC50,B16-F10 [5],1 µM
COc1cc(/C=C/c2ccc(NC(=O)CSc3nnc(-c4c(F)cccc4F)o3)cc2)cc(OC)c1,GI50,PANC-1,0.064 µM
COc1cc(/C=C/c2ccc(OC(=O)CSc3nnc(-c4c(F)cccc4F)o3)cc2)cc(OC)c1,GI50,PANC-1,0.064 µM
Oc1ccc(/C=C\c2cc(O)cc(O)c2)cc1 [CIS-RESVERATROL],IC50,[6],25.1 µM
same,IC50,HCT-116 [8],25.1 µM
COc1cc(/C=C/c2ccc(OC(=O)CSc3nnc(-c4ccc(C)cc4)o3)cc2)cc(OC)c1,GI50,PANC-1,0.064 µM
O=S(=O)(O)Oc1cc(O)cc(/C=C/c2ccc(O)cc2)c1,IC50,HEK293,> 100 µM
same,IC50,HT-29 [3],115 µM
same,IC50,MCF7 [4],17 µM
CC(=O)Oc1ccc(/C=C/c2cc(OC(C)=O)cc(OC(C)=O)c2)cc1 [TRIACETYLRESVERATROL],IC50,[7],3.4 µM
same,IC50,A549; a549,3.4 µM and 9.43 µM
same,IC50,HeLa; [12],3.4 µM
same,IC50,HeLa; time 72 hrs,20.14 µM
CC(C)CC(=O)Oc1ccc(/C=C/c2cc(OC(=O)CC(C)C)cc(OC(=O)CC(C)C)c2)cc1,IC50,[7],4.9 µM
same,IC50,"A549; Homo sapiens, A549, 72 h",4.9 µM
same,IC50,HeLa; [12],4.9 µM
CC(C)C(=O)Oc1ccc(/C=C/c2cc(OC(=O)C(C)C)cc(OC(=O)C(C)C)c2)cc1,IC50,[7],5.1 µM
same,IC50,"A549; Homo sapiens, A549, 72 h",5.1 µM
same,IC50,HeLa; [12],5.1 µM
COc1ccc(/C=N/NC(=O)/C=C/c2ccc(O)c(OC)c2)cc1,IC50,MCF7 [1],19.1 µM
same,selectivity ratio,in vitro,3.9
same,IC50 at 48 h,[2],158 µM
COc1ccc(/C=C\c2cc(OC)c(OC)c(OC)c2)cc1,IC50,B16-F10 [5],1 µM
same,inhibition (INH),B16-F10 [11],80%
COc1cc(/C=C/c2ccc(OC(=O)CSc3nnc(-c4ccc(F)cc4)o3)cc2)cc(OC)c1,GI50,PANC-1,0.064 µM
"COc1cc(/C=C\c2ccc(OC)c(OC)c2)cc(OC)c1 [(Z)-3,4,3',5'-TETRAMETHOXYSTILBENE]",IC50,B16-F10 [5],1 µM
same,inhibition (INH),B16-F10 [11],80%
COc1cc(/C=C/c2ccc(NC(=O)CSc3nnc(-c4ccc(F)cc4)o3)cc2)cc(OC)c1,GI50,PANC-1,0.064 µM
